According to patent US7579012B2, “Targeting of triacylglycerol synthase gene for tuberculosis treatment” (University of Central Florida Research Foundation, Inc., priority 2005, dated 2009):

Target: T1, TGS1 (Mycobacterium tuberculosis, UniProt P9WKC9)
T1 construct: made in house; host or cells: E. coli (total cell lysate, not purified)
T1 sequence (P9WKC9 1-463): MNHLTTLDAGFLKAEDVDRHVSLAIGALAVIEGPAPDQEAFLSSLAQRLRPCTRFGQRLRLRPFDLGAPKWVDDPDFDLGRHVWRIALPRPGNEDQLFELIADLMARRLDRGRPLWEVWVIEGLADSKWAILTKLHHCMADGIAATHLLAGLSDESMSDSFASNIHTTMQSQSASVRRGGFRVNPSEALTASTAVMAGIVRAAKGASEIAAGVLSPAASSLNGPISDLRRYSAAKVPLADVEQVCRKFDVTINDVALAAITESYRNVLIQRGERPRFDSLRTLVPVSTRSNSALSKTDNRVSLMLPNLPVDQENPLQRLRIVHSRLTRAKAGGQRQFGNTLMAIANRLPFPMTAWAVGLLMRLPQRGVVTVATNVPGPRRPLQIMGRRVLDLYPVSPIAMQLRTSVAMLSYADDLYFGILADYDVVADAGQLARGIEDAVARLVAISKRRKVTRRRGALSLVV
Type: biochemical, M. tuberculosis
Conditions: acyl-CoA substrate, pH 6.5, 37° C., 2 h; for Km: from linear double-reciprocal plots

Structure (SMILES) | Vmax | Km
CCCCCCCC/C=C\CCCCCCCC(=O)SCCNC(=O)CCNC(=O)[C@H](O)C(C)(C)COP(=O)(O)OP(=O)(O)OC[C@H]1O[C@@H](n2cnc3c(N)ncnc32)[C@H](O)[C@@H]1OP(=O)(O)O [C18:1-CoA, oleoyl (C18:1)-CoA] | 1.1 nmol/mg/min | 540 µM
CCCCCCCCCCCCCCCCCCCCCCCCCC(=O)SCCNC(=O)CCNC(=O)[C@H](O)C(C)(C)COP(=O)(O)OP(=O)(O)OC[C@H]1O[C@@H](n2cnc3c(N)ncnc32)[C@H](O)[C@@H]1OP(=O)(O)O [C26:0-CoA, hexacosanoyl (C26:0)-CoA] | 2.4 nmol/mg/min | 306 µM
